Source: patent US20240180880A1, “METHODS OF USING EHMT2 INHIBITORS IN TREATING OR PREVENTING BLOOD DISORDERS” (Epizyme, Inc., priority 2017, published 2024)

Key:
[1] = test system: Human CD34+ progenitor cells; assay: Human CD34+ progenitors assay for fetal hemoglobin induction, % HbF+ cells by FACS (healthy donors); format: cell-based; conditions: for Observed Induction of % HbF + Human Erythroid Progenitors: evaluated in the context of cell viability; for % HbF+ cells: 26% basal level
Text: An in-vitro system to test the ability of compound to induce fetal hemoglobin expression was developed. This system used Human CD34+ progenitor cells freshly isolated from healthy donors blood collections. Peripheral blood mononuclear cells (PBMCs) were isolated from whole blood by density gradient centrifugation using SepMatem-50 and Lymphoprep™ from Stem Cell Technologies. CD34^+ hematopoietic progenitor cells (HSPCs) were isolated from PBMCs by magnetic separation using Stem Cells Technologies CD34+ positive selection/isolation kit (Stem Cell Technologies, #18056). CD34 cells were cultured using a 2-phase 14 day culture system. During phase 1 (day 0 to day 7) cells were expanded. Expansion was followed by phase 2 (day 7 to day 14) where cells were differentiated toward the erythroid lineage. Compounds were added on day 1 and day 7 as 1000× stock after being diluted in dimethyl sulfoxide (DMSO) in a 3-fold series. Final DMSO concentration in the assay was 0.1%. At day 14 cells were harvested for Fluorescent Activated Cell Sorting (FACS) analysis and for HbF quantitation by Mass spectrometry. For cell surface and intracellular marker analysis by FACS, cells were fixed and stained with a cocktail of antibodies covering erythroid lineage markers, HbF and H3 and H3K9me2 (Table 11). Data was collected using Canto II flow cytometer (BD Biosciences) and the FACSDiva software. Data was analyzed using FlowJo software. % HbF^+ cells and ratios H3/H3K9me2 intensities were calculated for CD71^+/CD235a^+ gated populations.
A list of pharmacological agents was evaluated for their potential to induce fetal Hemoglobin (HbF) in order to identify combination partners for our EHMT1/2 inhibitors. HbF can be induced by toxicity; therefore, the potential of the agents to induce HbF were evaluated in the context of cell viability. (Table 12). The EHMT1/2 inhibitor Compound 205 was evaluated in combination with a fixed dose of 10 μM Hydroxyurea and 0.1 μM Pomalidomide. […] 10 μM Hydroxyurea as a single agent was able to induce 01% HbF^+ cells from 26% basal level to 45% while 0.016 μM compound 205 as a single agent induced to 45%. In combination these two agents were able to induced % HbF^+ to 63% (FIG. 3A). […] 0.1 μM Pomalidomide as a single agent was able to induce ° % HbF cells from 26% basal level to 48% while 0.016 μM compound 205 as a single agent induced to 45%. In combination these two agents were able to induce % HbF^+ to 78% (FIG. 3B).
Hydroxyurea was also evaluated as single agent and in combination with the EHMT1/2 inhibitor compound 205 in a matrix format using CD34^+ cells isolated from a pool of 5 healthy donors. […] (FIG. 4 and FIG. 5, respectively). It is noted that for Loewe excess determination in Chalice, data was normalized to the highest and lowest Hbγ induction observed under the conditions and dose ranges in the assay.

[2] = test system: human CD34+ progenitor cells isolated from SCD donors; assay: HbF pan-cellular induction by FACS in human CD34+ progenitor cells isolated from SCD donors; format: cell-based

## Nc1ccccc1NC(=O)c1cnccn1 [BG-45]
[1]
  Observed Induction of % HbF + Human Erythroid Progenitors: Yes

## NC(CO)C(=O)NNCc1ccc(O)c(O)c1O (stereo not shown) [Benzerazide]
[1]
  Observed Induction of % HbF + Human Erythroid Progenitors: Very small

## CNc1cc(C)nc(Nc2ccc(OC)c(OC[C@H](O)CN3CCC3)c2)n1 [Compound D5R]
[2]; 0.012 μM Compound D5R
  Fluorescence Intensity at which most of the positive cells are concentrated: ~10(3)
[2]; 0.012 μM Compound D5R, DMSO baseline 42.7%
  % of HbF expressing cells: 98.1%
[2]; 10 μM Hydroxyurea in combination with 0.012 μM Compound D5R, DMSO baseline 42.7%
  % of HbF expressing cells: 99.8%
[2]; Compound D5R dose response range (FIG. 6 ii-vi), DMSO baseline 42.7%
  % HbF+ cells: > 98%

## Clc1ccc2c(c1)CCc1cccnc1C2=C1CCNCC1 [Desloratidine, desloratidine]
[1]
  Observed Induction of % HbF + Human Erythroid Progenitors: No

## Nc1ccccc1NC(=O)c1ccc(CNC(=O)OCc2cccnc2)cc1 [Entinostat, entinostat]
[1]
  Observed Induction of % HbF + Human Erythroid Progenitors: Yes

## NC(=O)NO [Hydroxyurea, hydroxyurea, reference compound]
[1]; 10 μM Hydroxyurea as a single agent
  % HbF+ cells: 45%
[1]
  Observed Induction of % HbF + Human Erythroid Progenitors: Yes
[2]; 10 μM Hydroxyurea
  Fluorescence Intensity at which most of the positive cells are concentrated: ~10(4)
[2]; 10 μM Hydroxyurea, DMSO baseline 42.7%
  % of HbF expressing cells: 78.1%

## CN(C)C(=N)N=C(N)N [Metformin]
[1]
  Observed Induction of % HbF + Human Erythroid Progenitors: Yes

## Nc1cccc2c1C(=O)N(C1CCC(=O)NC1=O)C2=O (stereo not shown) [Pomalidomide, pomalidomide]
[1]; 0.1 μM Pomalidomide as a single agent
  % HbF+ cells: 48%
[1]
  Observed Induction of % HbF + Human Erythroid Progenitors: Yes

## O=C(CCCCCCC(=O)Nc1ccccc1)NO [Vorinostat, vorinostat]
[1]
  Observed Induction of % HbF + Human Erythroid Progenitors: No
